{"source": "patent US10406166B2", "about": "“Antimicrobial compound” (priority 2015, dated 2019)", "key": {"[1]": {"test_system": "Bacillus subtilis", "test": "Antimicrobial susceptibility (MIC, agar dilution)", "type": "cell-based", "settings": "Isosensitest agar, 128-1 μg/mL, 37° C. for 24 h", "experimental": "(§1) For each putative antimicrobial, determination of the antimicrobial susceptibility was performed in strict accordance with the recommendations of the British Society for Antimicrobial Chemotherapy. Isosensitest agar (Oxoid) was prepared according to the manufacturer's instructions and sterilized by autoclaving at 116° C. for 20 min. This was then cooled to 50° C. in a waterbath. A 10 mg sample of each antimicrobial was dissolved in 1 mL DMSO. A 256 μL aliquot was added to 19.744 mL of molten Isosensitest agar at 50° C. and mixed well. This was poured into a Petri dish to produce a culture plate containing a final concentration of 128 μg/mL. Smaller volumes of solution (ranging from 128-2 μL) were also incorporated into agar plates in similar fashion to produce a final concentration range of 128-1 μg/mL. A set of control plates was prepared containing DMSO at an identical concentration range without antimicrobial.\n(§2) A panel of microorganisms was obtained from the National Collection of Type Cultures (NCTC), Colindale, UK, the National Collection of Pathogenic Fungi (NCPF), Colindale, UK, and the American Type Culture Collection (ATCC), Manassas, Va. USA. The panel included a range of pathogenic species and comprised Bacillus subtillis, Listeria monocytogenes, Staphyloccci epidermidis, Staphylococcus aureus, Staphylococcus aureus (MRSA) and Streptococcis pyogenes, all of which are Gram-positive bacteria. Each strain was cultured onto Columbia agar (Oxoid) and incubated overnight at 37° C. Colonies were then suspended in sterile distilled water (SDW) to produce a suspension of 1.5×10^8 colony forming units CFU/mL using a densitometer. This suspension was then diluted 1/15 in SDW and 1 μL was inoculated onto all test media using a semi-automated multipoint inoculator (final inoculum: 10 000 CFU per spot). All media were incubated at 37° C. for 24 h and examined for the presence of growth. […] All tests were repeated on a separate occasion to ensure reproducibility.\n(§3) Determination of the antimicrobial susceptibility of the samples containing the isolated R and S enantiomers was performed as set out in Example 2."}, "[2]": {"test_system": "Listeria monocytogenes", "test": "Antimicrobial susceptibility (MIC, agar dilution)", "type": "cell-based", "settings": "Isosensitest agar, 128-1 μg/mL, 37° C. for 24 h", "experimental": "as §1, §2, §3"}, "[3]": {"test_system": "Staphyloccci epidermidis", "test": "Antimicrobial susceptibility (MIC, agar dilution)", "type": "cell-based", "settings": "Isosensitest agar, 128-1 μg/mL, 37° C. for 24 h", "experimental": "as §1, §2, §3"}, "[4]": {"test_system": "Staphylococcus aureus (MRSA)", "test": "Antimicrobial susceptibility (MIC, agar dilution)", "type": "cell-based", "settings": "Isosensitest agar, 128-1 μg/mL, 37° C. for 24 h", "experimental": "as §1, §2, §3"}, "[5]": {"test_system": "Staphylococcus aureus", "test": "Antimicrobial susceptibility (MIC, agar dilution)", "type": "cell-based", "settings": "Isosensitest agar, 128-1 μg/mL, 37° C. for 24 h", "experimental": "as §1, §2, §3"}, "[6]": {"test_system": "Streptococcis pyogenes", "test": "Antimicrobial susceptibility (MIC, agar dilution)", "type": "cell-based", "settings": "Isosensitest agar, 128-1 μg/mL, 37° C. for 24 h", "experimental": "as §1, §2, §3"}, "[7]": {"test": "Cell cytotoxicity CC50", "type": "cell-based", "settings": "human, 6-8 days, top concentration 100 μM, read-out: CC50 (concentration at which 50% cell toxicity is observed)", "excerpt": "(§4) Notes Cell obtained from ATCC and virus prep was subjected to one round of centrifugation through a 40% (V/V) glycerol to remove any interferon produced from infected cells. Growth medium was Dulbecco's modified Eagle's medium (DMEM) with 10% (v/v) foetal calf serum (FCS), Viral maintenance medium was DMEM+2% (v/v) FCS\nCell Cytotoxicity—CC50 (concentration at which 50% cell toxicity is observed):\nA549 cells and HeLa cells were used to seed a set of 96 well plates grown until 50% confluent, a 2 fold serial dilution of 5-Phenyl-S-3-amino-2,3-dihydro-1H-1,4-benzodiazepin-2-one (5) was performed on each cell line with DMSO (only) as control starting with 100 μM of 5-Phenyl-S-3-amino-2,3-dihydro-1H-1,4-benzodiazepin-2-one (5). Medium used was DMEM+2% FCS (normal medium for viral growth).\nCells were allowed to grow for 6-8 days to mimic a TCID50 assay after which cell viability was determined by adding Almar blur (similar to XTT) and reading at 600 nm (excitation 540 nm). No significant difference was observed between cells treated with 5-Phenyl-S-3-amino-2,3-dihydro-1H-1,4-benzodiazepin-2-one (5) and the DMSO control. No significant difference was observed between HeLa and A549 cells."}, "[8]": {"test_system": "RSV A2 strain", "test": "Infected cell viability assay (A549 only)", "type": "cell-based, Human RSV (Respiratory Syncytial Virus)", "settings": "human respiratory syncytial virus, moi 0.1, 8 days", "experimental": "as §4\n96 wells plates were set up as previously described. As before a 2 fold serial dilution of 5-Phenyl-S-3-amino-2,3-dihydro-1H-1,4-benzodiazepin-2-one (5) was added prior to addition of virus at a multiplicity of infection (moi) of 0.1, as determined by a plaque assay, in a volume of 50 μl (starting conc 100 μM). After incubating for 4 hours RSV A2 strain was added at an moi of 0.1 maintaining the concentration of 5-Phenyl-S-3-amino-2,3-dihydro-1H-1,4-benzodiazepin-2-one (5). As before, DMSO was the control. The final lane was a mock infected minus 5-Phenyl-S-3-amino-2,3-dihydro-1H-1,4-benzodiazepin-2-one (5) to show viability of cells after 8 days incubation.\nEvery two days for up to 8 days the media plus drug was replaced to maintain activity, after 8 days cell viability was assayed by cell staining with methylene blue. Each experiment was performed twice with similar results, see FIG. 14.\nAn alternative experiment was set up as before except virus, at an moi of 0.1, was added before the drug and allowed to incubate for 4 hours. […]"}, "[9]": {"test_system": "RSV", "test": "Plaque reduction assay", "type": "cell-based, Human RSV (Respiratory Syncytial Virus)", "settings": "A549, 10 μM added 3-4 hours before RSV; control titre 4.5×10^5", "experimental": "as §4\nA549 cells were seeded into a T25 flask and grown until 60-70% confluent. To one set of flasks (n=3) 5-Phenyl-S-3-amino-2,3-dihydro-1H-1,4-benzodiazepin-2-one (5) in DMSO was added at a concentration of 10 μM and allowed to incubate for 3-4 hours before the addition of RSV at an […] and incubated until extensive cytopathic effect (cpe) was evident, usually after 3 days. The concentration of 5-Phenyl-S-3-amino-2,3-dihydro-1H-1,4-benzodiazepin-2-one (5) was kept constant by replacing the medium each day (RSV is largely cell associated). After which virus was harvested by homogenising the cells in a final volume of 1 ml. The viral titre was determined by plaque assay and staining after 8 days. A control assay was conducted using DMSO in place of the DMSO solution of 5-Phenyl-S-3-amino-2,3-dihydro-1H-1,4-benzodiazepin-2-one (5). […]"}, "[10]": {"settings": "aqueous; cited from earlier work"}}, "note": "Like-named read-outs stand apart in the source and are kept apart here."}
{"smiles": "O=c1n(-c2c(F)c(F)nc(F)c2F)c2ccccc2n1-c1c(F)c(F)nc(F)c1F", "values": [{"measurement": "melting point", "value": "154.9 to 156", "unit": "°C"}]}
{"smiles": "O=C1C(=O)N(c2c(F)c(F)nc(F)c2F)c2ccccc21", "values": [{"measurement": "melting point", "value": "160.3 to 162.6", "unit": "°C"}]}
{"smiles": "COC(=O)CNc1c(F)c(F)nc(F)c1F", "values": [{"measurement": "melting point", "value": "67.8 to 68.7", "unit": "°C"}]}
{"smiles": "O=C1Nc2ccccc2C(c2ccccc2)=NC1Nc1c(F)c(F)nc(F)c1F", "note": "(racemic) [Compound 5, 5-Phenyl-3-[(tetrafluoropyridin-4-yl)amino]-2,3-dihydro-1H-1,4-benzodiazepin-2-one]", "values": [{"measurement": "antibacterial activity (by minimum inhibitory concentration)", "setting": "[1]", "value": "not"}, {"measurement": "antibacterial activity (by minimum inhibitory concentration)", "setting": "[2]", "value": "exhibited antibacterial activity"}, {"measurement": "antibacterial activity (by minimum inhibitory concentration)", "setting": "[2]; listed as racemate", "value": "effective"}, {"measurement": "antibacterial activity (by minimum inhibitory concentration)", "setting": "[3]", "value": "exhibited antibacterial activity"}, {"measurement": "antibacterial activity (by minimum inhibitory concentration)", "setting": "[3]; listed as racemate", "value": "effective"}, {"measurement": "antibacterial activity (by minimum inhibitory concentration)", "setting": "[4]", "value": "exhibited antibacterial activity"}, {"measurement": "antibacterial activity (by minimum inhibitory concentration)", "setting": "[4]; listed as racemate", "value": "effective"}, {"measurement": "antibacterial activity (by minimum inhibitory concentration)", "setting": "[5]", "value": "exhibited antibacterial activity"}, {"measurement": "antibacterial activity (by minimum inhibitory concentration)", "setting": "[5]; listed as racemate", "value": "effective"}, {"measurement": "antibacterial activity (by minimum inhibitory concentration)", "setting": "[6]", "value": "exhibited antibacterial activity"}, {"measurement": "antibacterial activity (by minimum inhibitory concentration)", "setting": "[6]; listed as racemate", "value": "effective"}, {"measurement": "CC50", "setting": "[7]; A549 cells", "value": "≥ 100000", "unit": "nM"}, {"measurement": "CC50", "setting": "[7]; HeLa cells", "value": "≥ 100000", "unit": "nM"}, {"measurement": "EC50", "setting": "[8]; A549, compound added 4 hours before virus, Reed and Meunch, read-out: half maximal effective concentration (EC50)", "value": 2400, "unit": "nM"}, {"measurement": "EC50", "setting": "[8]; A549, virus added 4 hours before the drug, Reed & Meunch, read-out: EC50", "value": "~3000", "unit": "nM"}, {"measurement": "viral titre after exposure", "setting": "[9]", "value": "2.3×10^3 viral infectivity units"}]}
{"smiles": "O=C1Nc2ccccc2C(c2ccccc2)=N[C@@H]1Nc1c(F)c(F)nc(F)c1F", "note": "(single isomer, unassigned; enantiomer 5) [S enantiomer, 5-Phenyl-S-3-[(tetrafluoropyridin-4-yl)amino]-2,3-dihydro-1H-1,4-benzodiazepin-2-one]", "values": [{"measurement": "antibacterial activity (by minimum inhibitory concentration)", "setting": "[1]", "value": "effective"}, {"measurement": "antibacterial activity (by minimum inhibitory concentration)", "setting": "[2]", "value": "effective"}, {"measurement": "antibacterial activity (by minimum inhibitory concentration)", "setting": "[3]", "value": "effective"}, {"measurement": "antibacterial activity (by minimum inhibitory concentration)", "setting": "[4]", "value": "effective"}, {"measurement": "antibacterial activity (by minimum inhibitory concentration)", "setting": "[5]", "value": "effective"}, {"measurement": "antibacterial activity (by minimum inhibitory concentration)", "setting": "[6]", "value": "effective"}]}
{"smiles": "O=C1Nc2ccc(Cl)cc2C(c2ccccc2Cl)=NC1O", "note": "(centres unmarked) [Lorazepam]", "values": [{"measurement": "pKa", "setting": "[10]", "value": "~13.0"}]}
{"smiles": "O=C1Nc2ccccc2C(c2ccccc2)=N[C@H]1Nc1c(F)c(F)nc(F)c1F", "note": "[R enantiomer, 5-Phenyl-R-3-[(tetrafluoropyridin-4-yl)amino]-2,3-dihydro-1H-1,4-benzodiazepin-2-one]", "values": [{"measurement": "antibacterial activity (by minimum inhibitory concentration)", "setting": "[3]", "value": "effective"}, {"measurement": "antibacterial activity (by minimum inhibitory concentration)", "setting": "[4]", "value": "effective"}, {"measurement": "antibacterial activity (by minimum inhibitory concentration)", "setting": "[5]", "value": "effective"}]}
